Laboratory results as given in patent publication US20250263416A1, “SPPL2a INHIBITORS” (Incyte Corporation, priority 2024, published 2025).
“Also recorded” adds a separate entry of the source.

Assays:
[1] = system: MoDCs; assay: DC-maturation assay (monocyte-derived dendritic cells from human PBMCs); type: cell-based; settings: 24 h
Description: Dendritic cells are crucial players in the antigen presentation process and inflammation. […] To validate the functional relevance of SPPL2a inhibitor, a DC-maturation assay was utilized. Human PBMCs were isolated from fresh blood using Histoplaque gradients and plated overnight at 37° C. to allow monocytes to adhere. Non-adherent cells were washed off the following day and DC-differentiation media containing GM-CSF and IL-4 was added and incubated for 5 d. Immature MoDCs were separated and washed. A cocktail of maturation media with SPPL2a inhibitor (at indicated concentrations) was added to the wells and cells were incubated for 24 h. Supernatants were collected and processed to measure TNFα and IL-12 by ELISA. All data is presented as mean+SEM. For comparison of more than two groups, ANOVA was used. All statistical analysis was performed using GraphPad Prism™ 10.

[2] = target: T1, human SPPL2a (Homo sapiens, UniProt Q8TCT8); assay: Western blot assay of TNFα-GFP cleavage in U2OS cells expressing human SPPL2a; type: cell-based; settings: SPPL2a-U2OS reporter cells, 24 h
T1 construct: expressed in transfected cells; host or cells: U2OS (SPPL2a reporter cell line)
T1 sequence (Q8TCT8 26-520): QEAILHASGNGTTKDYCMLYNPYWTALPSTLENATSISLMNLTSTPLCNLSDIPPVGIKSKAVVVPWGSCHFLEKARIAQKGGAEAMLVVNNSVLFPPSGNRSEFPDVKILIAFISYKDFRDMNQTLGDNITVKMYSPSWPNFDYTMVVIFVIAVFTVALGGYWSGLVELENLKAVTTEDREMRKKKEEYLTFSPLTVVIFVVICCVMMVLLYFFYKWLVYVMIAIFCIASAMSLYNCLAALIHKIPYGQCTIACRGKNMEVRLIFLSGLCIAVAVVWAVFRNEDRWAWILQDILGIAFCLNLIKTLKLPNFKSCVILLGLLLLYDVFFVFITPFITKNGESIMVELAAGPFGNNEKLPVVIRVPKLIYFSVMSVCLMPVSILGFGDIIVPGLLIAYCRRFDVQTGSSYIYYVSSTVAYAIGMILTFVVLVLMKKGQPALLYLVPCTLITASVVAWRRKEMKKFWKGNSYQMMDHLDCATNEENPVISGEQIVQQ
Description: To confirm the cleavage of TNF-α in the U2OS cells that express human SPPL2a, a western blot assay was performed. The same cell line used for the imaging assays were used; these cells express human SPPL2a constitutively and an eGFP-labelled TNFα (aa 1-76) NTF substrate under a doxycycline promotor. In the presence of SPPL2a activity, TNFα-GFP is cleaved at the NTF, resulting in a single 54-56 kDa band (lower MW). If SPPL2a activity is inhibited, TNFα GFP processing is abrogated resulting in a higher molecular weight band (60-62 kDa; complete inhibition) and or both 54-56 kDa and 60-62 kDa bands (incomplete inhibition, smeared appearance) on the blot. Both Example 1 and Example A were added at indicated concentrations, and cells were incubated for 24 h with the inhibitors. Total cell lysated were prepared in ice cold-1X RIPA buffer containing protease inhibitor cocktail (AKR-190, Cell BioLabs). Lysates were collected and quantified for the total protein on NanoDrop using BCA kit (23227, Thermo Scientific). […] To detect cleaved and un-cleaved TNFα-GFP fragments, anti-GFP antibody (AF4240, R&D Biosystems) was used as a primary antibody and detected using anti-goat detection module (DM-006, ProteinSimple) according to the manufacturer's protocol. Data was analyzed using ProteinSimple compass software.

[3] = In vivo epimerization and PK, statements covering all three preclinical models; set-up: species or system Sprague Dawley rats, beagle dogs, cynomolgus monkeys
Description: These factors may lead to accumulation and potenial toxicity. The effect on epimerization by substitution at the chiral carbon was tested by comparing Example A, Example 1, and Example 29 in the following preclinical in vivo pharmacokinetic models: Sprague Dawley rats, beagle dogs, and cynomolgus monkeys.
Two groups of male Sprague Dawley rats (n=3 each) received either a single 10 mg/kg PO dose of Example A or Example 1 in a vehicle consisting of 0.5% methylcellulose in water. Blood samples were collected at 0.25, 0.5, 1, 2, 4, and 6 hours postdose.
Male Sprague Dawley rats (n=3 each) received a single 3 mg/kg PO dose of Example 29 in a vehicle consisting of 5% dimethylacetamide (DMAC) in 50 mM citrate buffer w/0.5% methylcellulose. Blood samples were collected at predose, 0.25, 0.5, 1, 2, 4, 6, 8, 12, and 24 hours postdose.
(§1) Three groups of male cynomolgus monkeys (n=2 each) received either a single 3 mg/kg PO dose of Example A, Example 1, or Example 29 in a vehicle consisting of 5% dimethylacetamide (DMAC) in 50 mM citrate buffer w/0.5% methylcellulose. Blood samples were collected at predose, 0.25, 0.5, 1, 2, 3, 4, 6, 8, 12, and 24 hours postdose.
as §1, with “beagle dogs” for “cynomolgus monkeys”, “12, 24” for “12,”, “48” for “24”
All blood samples were collected using EDTA as the anticoagulant and centrifuged to obtain plasma. Plasma concentrations of Example A, Example 1, and their respective diastereomers were determined under non-GLP conditions using standard reverse phase LC-MS/MS bioanalytical methods. The individual plasma concentration-time data was used to determine the area under the curve (AUC) values using GraphPad Prism (v9.3.1).

CNC(=O)c1nc(C)c(C(=O)NC[C@@H](C)C(=O)N[C@@H]2C(=O)N3CCCN3Cc3ccccc32)s1 [Example A, N^2,4-dimethyl-N^5—((R)-2-methyl-3-oxo-3-(((S)-11-oxo-2,3,10,11-tetrahydro-1H,5H-benzo[d]pyrazolo[1,2-a][1,2]diazepin-10-yl)amino)propyl)thiazole-2,5-dicarboxamide]
IL-12 secretion ([1]; MoDC supernatants, ELISA): significantly decreased | TNFα secretion ([1]; MoDC supernatants, ELISA): significantly decreased | MoDC maturation ([1]; compared to the stimulation only condition): significantly decreased | TNFα-GFP cleavage inhibition (SPPL2a activity inhibition) [2]: SPPL2a activity inhibition; also recorded: Comparable and significant TNFα-GFP cleavage inhibition | in vivo epimerization at the chiral carbon in the 7-membered ring ([3]; rat, monkey and dog models, PO): exhibits epimerization in vivo; also recorded: observed in all three models | exposures and PK (other than epimerization) across species ([3]; rats, monkeys, dogs): consistent
